Data taken from patent US11572369B2, “Bicyclic pyridine compositions and methods of using the same for cancer therapy” (UNIVERSITY OF SOUTH CAROLINA, priority 2019, dated 2023).

Legend:
Assay in all cases: KINOMEscan
Format in all cases: binding
Details in all cases: 2000 nM
PRKD1 = biological target: T1, PRKD1 (Homo sapiens, UniProt Q15139)
T1 construct: purchased DiscoveRx (KINOMEscan scanMAX panel)

PRKCE = biological target: T2, PRKCE (Homo sapiens, UniProt Q02156)
T2 construct: purchased DiscoveRx (KINOMEscan scanMAX panel)

PCTK3 = biological target: T3, PCTK3 (Homo sapiens, UniProt Q07002)
T3 construct: DNA label (for qPCR read-out); purchased DiscoveRx (KINOMEscan scanMAX service)

DAPK2 = biological target: T4, DAPK2 (Homo sapiens, UniProt Q9UIK4)
T4 construct: DNA label; purchased DiscoveRx (KINOMEscan scanMAX panel)

PKN1 = biological target: T5, PKN1 (Homo sapiens, UniProt Q16512)
T5 construct: DNA label (qPCR read-out); purchased KINOMEscan (DiscoveRx) panel

PRKD2 = biological target: T6, PRKD2 (Homo sapiens, UniProt Q9BZL6)
T6 construct: purchased DiscoveRx (KINOMEscan scanMAX panel)

RIPK4 = biological target: T7, RIPK4 (Homo sapiens, UniProt P57078)
T7 construct: DNA label (qPCR read-out); purchased DiscoveRx (KINOMEscan ScanMAX panel)

TSSK3 = biological target: T8, TSSK3 (Homo sapiens, UniProt Q96PN8)
T8 construct: DNA label (for qPCR read-out); purchased DiscoveRx (KINOMEscan scanMAX panel)

HIPK3 = biological target: T9, HIPK3 (Homo sapiens, UniProt Q9H422)
T9 construct: DNA label (for qPCR read-out); purchased DiscoveRx (KINOMEscan scanMAX panel, contract assay)

CAMK1 = biological target: T10, CAMK1 (Homo sapiens, UniProt Q14012)
T10 construct: DNA label (qPCR read-out); purchased KINOMEscan (ScanMAX panel service)

CDKL5 = biological target: T11, CDKL5 (Homo sapiens, UniProt O76039)
T11 construct: DNA label (for qPCR read-out); purchased DiscoveRx (KINOMEscan scanMAX service)
T11 sequence (O76039 whole entry): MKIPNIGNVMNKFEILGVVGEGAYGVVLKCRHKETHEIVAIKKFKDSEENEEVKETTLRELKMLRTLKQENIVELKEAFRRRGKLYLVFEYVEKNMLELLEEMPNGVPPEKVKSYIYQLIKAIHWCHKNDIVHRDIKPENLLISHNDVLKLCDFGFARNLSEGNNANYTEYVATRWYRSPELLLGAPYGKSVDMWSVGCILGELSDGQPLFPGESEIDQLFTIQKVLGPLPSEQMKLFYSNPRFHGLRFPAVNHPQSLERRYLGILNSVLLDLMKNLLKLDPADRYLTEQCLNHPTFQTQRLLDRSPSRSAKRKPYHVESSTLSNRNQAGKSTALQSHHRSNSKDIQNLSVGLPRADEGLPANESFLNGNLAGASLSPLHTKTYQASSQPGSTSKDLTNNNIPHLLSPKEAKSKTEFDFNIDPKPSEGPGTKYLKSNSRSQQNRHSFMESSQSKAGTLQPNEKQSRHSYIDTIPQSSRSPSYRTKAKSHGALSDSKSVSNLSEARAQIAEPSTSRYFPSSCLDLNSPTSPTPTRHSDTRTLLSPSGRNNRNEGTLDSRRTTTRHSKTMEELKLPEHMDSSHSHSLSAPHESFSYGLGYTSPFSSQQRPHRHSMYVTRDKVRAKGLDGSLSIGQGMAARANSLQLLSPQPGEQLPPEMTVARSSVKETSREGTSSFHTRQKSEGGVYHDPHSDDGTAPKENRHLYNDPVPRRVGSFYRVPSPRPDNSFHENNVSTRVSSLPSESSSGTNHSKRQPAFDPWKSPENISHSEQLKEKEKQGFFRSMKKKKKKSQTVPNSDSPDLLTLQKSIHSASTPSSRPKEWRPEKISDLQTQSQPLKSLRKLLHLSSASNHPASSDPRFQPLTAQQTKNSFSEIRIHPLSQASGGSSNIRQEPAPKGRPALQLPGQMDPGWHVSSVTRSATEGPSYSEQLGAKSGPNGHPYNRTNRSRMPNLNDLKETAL

[1] = biological target: T12, RPS6KA4(Kin.Dom.1-N-terminal) (Homo sapiens, UniProt O75676)
T12 construct: Kin.Dom.1; DNA label (qPCR read-out); purchased DiscoveRx (KINOMEscan ScanMAX panel)

TLK2 = biological target: T13, TLK2 (Homo sapiens, UniProt Q86UE8)
T13 construct: DNA label (qPCR read-out); purchased KINOMEscan (DiscoveRx) ScanMAX panel

FGFR1 = biological target: T14, FGFR1 (Homo sapiens, UniProt P11362)
T14 construct: purchased DiscoveRx (KINOMEscan scanMAX panel)
T14 sequence (P11362 22-822): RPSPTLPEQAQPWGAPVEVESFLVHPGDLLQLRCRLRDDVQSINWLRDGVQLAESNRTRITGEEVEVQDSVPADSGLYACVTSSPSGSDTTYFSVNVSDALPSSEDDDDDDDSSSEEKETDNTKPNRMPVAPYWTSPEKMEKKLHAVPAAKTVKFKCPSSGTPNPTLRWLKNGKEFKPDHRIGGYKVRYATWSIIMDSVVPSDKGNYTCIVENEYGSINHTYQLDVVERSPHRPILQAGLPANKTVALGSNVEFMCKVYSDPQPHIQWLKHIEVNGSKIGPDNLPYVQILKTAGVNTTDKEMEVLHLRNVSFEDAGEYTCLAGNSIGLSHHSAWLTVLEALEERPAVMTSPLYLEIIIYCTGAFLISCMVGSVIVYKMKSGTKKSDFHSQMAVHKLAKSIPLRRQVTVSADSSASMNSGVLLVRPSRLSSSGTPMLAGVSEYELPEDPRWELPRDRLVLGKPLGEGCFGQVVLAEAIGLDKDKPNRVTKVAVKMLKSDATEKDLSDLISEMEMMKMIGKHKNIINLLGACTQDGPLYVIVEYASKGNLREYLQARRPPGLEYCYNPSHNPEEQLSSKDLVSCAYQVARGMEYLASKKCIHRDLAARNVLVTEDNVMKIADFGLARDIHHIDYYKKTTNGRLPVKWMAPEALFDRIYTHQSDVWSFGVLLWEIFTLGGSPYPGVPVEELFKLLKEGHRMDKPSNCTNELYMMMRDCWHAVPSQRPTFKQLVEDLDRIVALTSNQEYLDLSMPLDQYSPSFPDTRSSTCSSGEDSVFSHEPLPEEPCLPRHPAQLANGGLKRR

[2] = biological target: T15, RPS6KA4(Kin.Dom.2-C-terminal) (Homo sapiens, UniProt O75676)
T15 construct: Kin.Dom.2; DNA label (qPCR read-out); purchased DiscoveRx (KINOMEscan ScanMAX panel)

TIE1 = biological target: T16, TIE1 (Homo sapiens, UniProt P35590)
T16 construct: DNA label (qPCR read-out); purchased KINOMEscan (DiscoveRx) ScanMAX panel
T16 sequence (P35590 22-1138): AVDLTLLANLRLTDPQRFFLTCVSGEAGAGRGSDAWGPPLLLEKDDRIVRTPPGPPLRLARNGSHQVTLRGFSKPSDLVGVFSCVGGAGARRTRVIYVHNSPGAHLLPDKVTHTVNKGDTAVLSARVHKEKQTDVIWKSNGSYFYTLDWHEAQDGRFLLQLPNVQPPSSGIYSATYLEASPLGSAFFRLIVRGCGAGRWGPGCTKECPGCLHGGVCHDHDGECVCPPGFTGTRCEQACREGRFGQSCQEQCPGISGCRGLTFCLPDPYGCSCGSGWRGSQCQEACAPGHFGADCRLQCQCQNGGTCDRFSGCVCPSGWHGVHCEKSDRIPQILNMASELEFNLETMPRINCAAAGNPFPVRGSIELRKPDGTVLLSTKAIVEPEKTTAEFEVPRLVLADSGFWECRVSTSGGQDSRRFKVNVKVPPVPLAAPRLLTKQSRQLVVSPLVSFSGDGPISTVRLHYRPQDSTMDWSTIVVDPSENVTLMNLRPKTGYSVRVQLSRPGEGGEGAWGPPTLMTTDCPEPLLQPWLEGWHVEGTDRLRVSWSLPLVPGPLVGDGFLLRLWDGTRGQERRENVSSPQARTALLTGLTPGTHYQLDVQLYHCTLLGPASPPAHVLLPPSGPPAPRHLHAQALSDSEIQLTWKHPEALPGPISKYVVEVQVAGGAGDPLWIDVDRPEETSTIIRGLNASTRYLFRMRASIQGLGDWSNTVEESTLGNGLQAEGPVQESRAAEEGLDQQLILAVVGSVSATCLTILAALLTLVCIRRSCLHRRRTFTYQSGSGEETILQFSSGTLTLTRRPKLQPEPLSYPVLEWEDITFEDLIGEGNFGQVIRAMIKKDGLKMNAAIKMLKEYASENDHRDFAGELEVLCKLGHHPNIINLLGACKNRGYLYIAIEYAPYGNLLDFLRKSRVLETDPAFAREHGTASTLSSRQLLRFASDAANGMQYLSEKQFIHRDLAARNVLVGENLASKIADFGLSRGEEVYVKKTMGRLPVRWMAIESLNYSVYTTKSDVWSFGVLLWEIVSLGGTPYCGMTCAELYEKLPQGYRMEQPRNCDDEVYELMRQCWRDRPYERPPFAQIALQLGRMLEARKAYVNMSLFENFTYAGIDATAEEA

OSR1 = biological target: T17, OSR1 (Homo sapiens, UniProt O95747)
T17 construct: purchased DiscoverX (KINOMEscan service)

[3] = biological target: T18, RSK4(Kin.Dom.1-N-terminal) (Homo sapiens, UniProt Q9UK32)
T18 construct: RSK4(Kin.Dom.1); purchased DiscoveRx (KINOMEscan scanMAX panel)

PIK3CG = biological target: T19, PIK3CG (Homo sapiens, UniProt P48736)
T19 construct: DNA label; purchased DiscoveRx (KINOMEscan scanMAX panel)

[4] = biological target: ABL1(F317I)-phosphorylated (Homo sapiens, UniProt P00519, F317I)
PKAC-alpha = biological target: T20, PKAC-alpha (Homo sapiens, UniProt P17612)
T20 construct: DNA label (qPCR read-out); purchased KINOMEscan (DiscoveRx) panel

S6K1 = biological target: T21, S6K1 (Homo sapiens, UniProt P23443)
T21 construct: purchased DiscoveRx (KINOMEscan scanMAX panel)

SYK = biological target: T22, SYK (Homo sapiens, UniProt P43405)
T22 construct: DNA label (for qPCR read-out); purchased DiscoveRx (KINOMEscan scanMAX panel, contract assay)

SGK3 = biological target: T23, SGK3 (Homo sapiens, UniProt Q96BR1)
T23 construct: purchased KINOMEscan (DiscoveRx)

EGFR(G719C) = biological target: T24, EGFR(G719C) (Homo sapiens, UniProt P00533, G719C)
T24 construct: purchased DiscoveRx (KINOMEscan scanMAX panel)

PKN2 = biological target: T25, PKN2 (Homo sapiens, UniProt Q16513)
T25 construct: DNA label (qPCR read-out); purchased KINOMEscan (DiscoveRx) panel

FAK = biological target: T26, FAK (Homo sapiens, UniProt Q05397)
T26 construct: DNA label (qPCR read-out); purchased DiscoveRx (KINOMEscan ScanMAX panel)

PIK3C2G = biological target: T27, PIK3C2G (Homo sapiens, UniProt O75747)
T27 construct: DNA label (for qPCR read-out); purchased DiscoveRx (KINOMEscan scanMAX service)

PKMYT1 = biological target: T28, PKMYT1 (Homo sapiens, UniProt Q99640)
T28 construct: DNA label (qPCR read-out); purchased KINOMEscan (DiscoveRx) panel

FRK = biological target: T29, FRK (Homo sapiens, UniProt P42685)
T29 construct: purchased KINOMEscan (DiscoveRx)

MARK4 = biological target: T30, MARK4 (Homo sapiens, UniProt Q96L34)
T30 construct: purchased DiscoveRx (KINOMEscan scanMAX panel, service)

MAP3K1 = biological target: T31, MAP3K1 (Homo sapiens, UniProt Q13233)
T31 construct: DNA label (qPCR read-out); purchased DiscoverX (KINOMEscan service)
T31 sequence (Q13233 whole entry): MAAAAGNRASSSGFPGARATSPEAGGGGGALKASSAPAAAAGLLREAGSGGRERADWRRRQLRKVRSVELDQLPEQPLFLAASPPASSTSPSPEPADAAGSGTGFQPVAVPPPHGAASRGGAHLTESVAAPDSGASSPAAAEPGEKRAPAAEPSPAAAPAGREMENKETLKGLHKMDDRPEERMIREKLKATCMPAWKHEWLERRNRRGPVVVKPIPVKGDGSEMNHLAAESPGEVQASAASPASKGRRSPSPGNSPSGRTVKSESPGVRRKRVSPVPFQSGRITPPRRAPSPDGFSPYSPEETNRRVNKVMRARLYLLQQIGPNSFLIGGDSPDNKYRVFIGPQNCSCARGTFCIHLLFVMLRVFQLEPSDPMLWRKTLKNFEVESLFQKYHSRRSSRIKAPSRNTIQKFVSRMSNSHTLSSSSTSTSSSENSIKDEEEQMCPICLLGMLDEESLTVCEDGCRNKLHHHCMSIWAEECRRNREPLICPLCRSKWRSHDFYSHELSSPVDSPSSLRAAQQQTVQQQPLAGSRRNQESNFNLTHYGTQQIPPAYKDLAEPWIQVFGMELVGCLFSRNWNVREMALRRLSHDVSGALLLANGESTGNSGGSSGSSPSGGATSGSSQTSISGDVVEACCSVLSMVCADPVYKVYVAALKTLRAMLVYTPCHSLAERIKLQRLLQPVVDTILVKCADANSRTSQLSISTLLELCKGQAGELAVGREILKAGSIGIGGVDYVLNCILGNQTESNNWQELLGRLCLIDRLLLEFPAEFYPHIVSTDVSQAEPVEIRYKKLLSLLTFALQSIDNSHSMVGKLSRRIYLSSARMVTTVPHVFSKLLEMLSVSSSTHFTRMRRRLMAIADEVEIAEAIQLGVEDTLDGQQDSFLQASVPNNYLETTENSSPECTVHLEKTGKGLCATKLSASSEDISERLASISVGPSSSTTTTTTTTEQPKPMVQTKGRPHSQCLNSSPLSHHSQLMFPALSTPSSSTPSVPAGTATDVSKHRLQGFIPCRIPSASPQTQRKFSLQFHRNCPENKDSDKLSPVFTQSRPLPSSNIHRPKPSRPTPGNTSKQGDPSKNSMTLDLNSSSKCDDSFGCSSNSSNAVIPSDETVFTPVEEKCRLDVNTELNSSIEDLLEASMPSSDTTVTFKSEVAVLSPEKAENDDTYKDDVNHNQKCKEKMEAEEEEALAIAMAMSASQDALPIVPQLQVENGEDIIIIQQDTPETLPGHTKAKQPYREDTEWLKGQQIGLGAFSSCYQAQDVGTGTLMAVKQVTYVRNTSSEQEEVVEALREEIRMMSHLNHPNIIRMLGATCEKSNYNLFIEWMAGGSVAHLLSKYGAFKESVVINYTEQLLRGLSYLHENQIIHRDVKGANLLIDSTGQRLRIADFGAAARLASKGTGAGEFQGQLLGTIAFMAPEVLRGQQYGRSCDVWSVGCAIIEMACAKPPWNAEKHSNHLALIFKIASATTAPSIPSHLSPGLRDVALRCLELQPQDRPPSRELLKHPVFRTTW

HIPK4 = biological target: T32, HIPK4 (Homo sapiens, UniProt Q8NE63)
T32 construct: DNA label (for qPCR read-out); purchased DiscoveRx (KINOMEscan scanMAX panel, contract assay)
T32 sequence (Q8NE63 whole entry): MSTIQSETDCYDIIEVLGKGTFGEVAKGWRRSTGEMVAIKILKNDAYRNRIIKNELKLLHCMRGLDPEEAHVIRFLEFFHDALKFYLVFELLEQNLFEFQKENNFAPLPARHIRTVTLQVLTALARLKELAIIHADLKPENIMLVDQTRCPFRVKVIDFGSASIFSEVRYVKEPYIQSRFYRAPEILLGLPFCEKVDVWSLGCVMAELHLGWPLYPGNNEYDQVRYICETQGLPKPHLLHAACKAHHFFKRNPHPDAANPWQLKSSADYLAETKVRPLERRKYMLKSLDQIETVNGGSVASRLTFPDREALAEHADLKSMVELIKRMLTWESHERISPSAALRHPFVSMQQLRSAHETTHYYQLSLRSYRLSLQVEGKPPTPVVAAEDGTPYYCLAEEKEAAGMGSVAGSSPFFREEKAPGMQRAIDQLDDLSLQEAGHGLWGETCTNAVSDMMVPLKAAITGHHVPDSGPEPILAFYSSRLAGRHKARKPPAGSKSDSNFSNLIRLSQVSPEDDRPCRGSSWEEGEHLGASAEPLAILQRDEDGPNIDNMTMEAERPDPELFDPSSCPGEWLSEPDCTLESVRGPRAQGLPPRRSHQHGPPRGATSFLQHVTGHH

MAPKAPK5 = MAPKAPK5 (Homo sapiens, UniProt Q8IW41)
SRC = biological target: T33, SRC (Homo sapiens, UniProt P12931)
T33 construct: purchased KINOMEscan (DiscoveRx)

| Compound | % Ctrl (PRKD1) | % Ctrl (PRKCE) | % Ctrl (PCTK3) | % Ctrl (DAPK2) | % Ctrl (PKN1) | % Ctrl (PRKD2) | % Ctrl (RIPK4) | % Ctrl (TSSK3) | % Ctrl (HIPK3) | % Ctrl (CAMK1) | % Ctrl (CDKL5) | % Ctrl [1] | % Ctrl (TLK2) | % Ctrl (FGFR1) | % Ctrl [2] | % Ctrl (TIE1) | % Ctrl (OSR1) | % Ctrl [3] | % Ctrl (PIK3CG) | % Ctrl [4] | other results |
| --- | --- | --- | --- | --- | --- | --- | --- | --- | --- | --- | --- | --- | --- | --- | --- | --- | --- | --- | --- | --- | --- |
| [2H]C([2H])([2H])N(C(=O)c1ccc(N2CCCN(c3ccnc4sc(C(N)=O)c(N)c34)CC2)cc1)C([2H])([2H])[2H] [15u_D6, 3-amino-4-(4-(4-(bis(methyl-d3)carbamoyl)phenyl)-1,4-diazepan-1-yl)thieno[2,3-b]pyridine-2-carboxamide] | 92 % Ctrl | 97 % Ctrl | 100 % Ctrl | 85 % Ctrl | 100 % Ctrl | 90 % Ctrl | 68 % Ctrl | 100 % Ctrl | 81 % Ctrl | 95 % Ctrl | 84 % Ctrl | 100 % Ctrl | 97 % Ctrl | 92 % Ctrl | 74 % Ctrl | 96 % Ctrl | 88 % Ctrl | 80 % Ctrl | 76 % Ctrl | 84 % Ctrl | % Ctrl (PKAC-alpha): 100 % Ctrl; % Ctrl (S6K1): 89 % Ctrl; % Ctrl (SYK): 100 % Ctrl; % Ctrl (SGK3): 80 % Ctrl; % Ctrl (EGFR(G719C)): 100 % Ctrl; % Ctrl (PKN2): 100 % Ctrl; % Ctrl (FAK): 96 % Ctrl; % Ctrl (PIK3C2G): 82 % Ctrl; % Ctrl (PKMYT1): 94 % Ctrl; % Ctrl (FRK): 97 % Ctrl; % Ctrl (MARK4): 98 % Ctrl; % Ctrl (MAP3K1): 90 % Ctrl; % Ctrl (HIPK4): 100 % Ctrl; % Ctrl (MAPKAPK5): 64 % Ctrl; % Ctrl (SRC): 96 % Ctrl |
| CN(C)C(=O)c1ccc(N2CCCN(c3ccnc4sc(C(N)=O)c(N)c34)CC2)cc1 [15u, 3-amino-4-(4-(4-(dimethylcarbamoyl)phenyl)-1,4-diazepan-1-yl)thieno[2,3-b]pyridine-2-carboxamide] | 88 % Ctrl | 93 % Ctrl | 100 % Ctrl | 75 % Ctrl | 96 % Ctrl | 56 % Ctrl | 89 % Ctrl | 93 % Ctrl | 77 % Ctrl | 83 % Ctrl | 100 % Ctrl | 96 % Ctrl | 100 % Ctrl | 98 % Ctrl | 100 % Ctrl | 90 % Ctrl | 100 % Ctrl | 78 % Ctrl | 79 % Ctrl | 88 % Ctrl | % Ctrl (PKAC-alpha): 95 % Ctrl; % Ctrl (S6K1): 95 % Ctrl; % Ctrl (SYK): 95 % Ctrl; % Ctrl (SGK3): 79 % Ctrl; % Ctrl (EGFR(G719C)): 97 % Ctrl; % Ctrl (PKN2): 100 % Ctrl; % Ctrl (FAK): 100 % Ctrl; % Ctrl (PIK3C2G): 94 % Ctrl; % Ctrl (PKMYT1): 91 % Ctrl; % Ctrl (FRK): 100 % Ctrl; % Ctrl (MARK4): 100 % Ctrl; % Ctrl (MAP3K1): 84 % Ctrl; % Ctrl (HIPK4): 100 % Ctrl; % Ctrl (MAPKAPK5): 100 % Ctrl; % Ctrl (SRC): 100 % Ctrl |
